Biological target: T1, MEK1 (Homo sapiens, UniProt Q02750)
T1 construct: purchased SignalChem M02-14H
Test: MEK1 kinase cascade assay (ADP-Glo), inhibition of MEK1 kinase activity
Type: biochemical
Conditions: 25 nM BRAF, 6.25 nM MEK1, 0.5 μM ERK, 1 mM ATP; 20 min preincubation, 1 hr at 25° C.; read-out: BRAF ADP Glo kinase assay V3 (IC50)
Source text: Protein expression and purification: BRAF (445-723) with N-term His-tag and C-term StrepII tag was expressed using the Expi293 system (ThermoFisher) and purified using Strep-Tactin® XT-Superflow (IBA) chromatography. ERK1 (full-length) with N-term His-tag was expressed in Rosetta DE3 cells (Millipore) and purified using HisTrap HP (Cytiva) and Superdex 200 (Cytiva) column chromatography. Full-length MEK1 for TR-FRET assays with N-term His-tag was expressed in BL21DE3 cells (ThermoFisher) and purified using HisTrap HP (Cytiva) and Superdex 200 (Cytiva) column chromatography.
Efficacy of exemplary compounds in inhibition of MEK1 kinase activity: The effect of compound MEK1 inhibition was evaluated using an ADP detection system for kinases, such as the ADP-Glo assay (Promega). The MEK1 kinase cascade assay consisted of 9 μL reaction volumes in 384-well white, opaque Optiplates (PerkinElmer). Compounds were prepared from DMSO stocks in assay buffer (10 mM HEPES pH 7.5, 5 mM MgCl2, 2 mM CHAPS, and 1 mM DTT) and preincubated with 25 nM BRAF for 20 mins at 25° C. prior to addition of 6.25 nM MEK1/0.5 μM ERK/1 mM ATP premix to initiate the kinase reaction. Both BRAF and ERK1 were produced in-house, and MEK1 was purchased from SignalChem (M02-14H). DMSO was kept constant at a final concentration of 1%. After a 1 hr incubation at 25° C., conversion of ATP to ADP was detected using ADP-Glo™ reagents according to the manufacturer's protocol. Luminescence was measured using a CLARIOstar microplate reader (BMG). Percent (%) Inhibition was calculated by normalizing to DMSO control (max) and 1 μM Trametinib (min). % inhibition as a function of compound concentration from 2 replicate wells was fit with a 4-parameter logistic curve equation using GraphPad Prism or CDD Vault to derive IC50 values.
In this table, for the BRAF ADP Glo kinase assay, “A” indicates IC50 of less than 5 nM; “B” indicates IC50 of between 5 nM to 50 nM; and “C” indicates IC50 of between 50 nM to 500 nM. “D” indicates IC50 of greater than 500 nM. For the BRAF-MEK TR-FRET assay, “A” indicates EC50 of less than 50 nM; “B” indicates EC50 of between 50 nM to 200 nM; and “C” indicates EC50 of between 200 nM to 1 μM. “D′” indicates EC50 of greater than 1 μM. For the AlphaLisa P-ERK assay, “A” indicates IC50 of less than 1 nM; “B” indicates IC50 of between 1 nM to 10 nM; and “C” indicates IC50 of between 10 nM to 100 nM. “D” indicates IC50 of greater than 100 nM. For the cell viability assay, “A” indicates IC50 of less than 1 nM; “B” indicates IC50 of between 1 nM to 10 nM; and “C” indicates IC50 of between 10 nM to 100 nM. “D” indicates IC50 of greater than 100 nM.

T1 sequence (Q02750 whole entry): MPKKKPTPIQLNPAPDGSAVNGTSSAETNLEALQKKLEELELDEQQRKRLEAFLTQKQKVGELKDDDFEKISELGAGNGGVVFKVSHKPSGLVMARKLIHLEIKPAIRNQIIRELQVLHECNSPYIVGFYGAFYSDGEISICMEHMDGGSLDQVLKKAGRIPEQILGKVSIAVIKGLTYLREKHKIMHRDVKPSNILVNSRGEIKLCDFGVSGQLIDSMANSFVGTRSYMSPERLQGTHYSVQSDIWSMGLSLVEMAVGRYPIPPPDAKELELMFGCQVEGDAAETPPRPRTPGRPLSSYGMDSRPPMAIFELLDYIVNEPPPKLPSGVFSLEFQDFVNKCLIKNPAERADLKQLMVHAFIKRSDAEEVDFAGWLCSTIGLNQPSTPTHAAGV
T1 sequence (P15056 445-723 partner limits assumed): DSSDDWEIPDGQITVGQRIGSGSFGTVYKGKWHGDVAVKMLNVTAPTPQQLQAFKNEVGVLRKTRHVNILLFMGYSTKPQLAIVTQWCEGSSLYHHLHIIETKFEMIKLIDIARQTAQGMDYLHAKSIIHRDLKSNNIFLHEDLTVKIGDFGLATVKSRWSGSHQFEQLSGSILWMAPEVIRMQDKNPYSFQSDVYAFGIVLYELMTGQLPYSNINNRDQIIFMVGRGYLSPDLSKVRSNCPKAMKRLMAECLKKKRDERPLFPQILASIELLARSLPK

IC50 [nM] | SMILES
50 to 500 | CNS(=O)(=O)Nc1cccc(CN2C(=O)Oc3cc(Oc4cnccn4)ccc3C23COC3)c1F [Compound 70, 3-({2-fluoro-3-[(methylsulfamoyl)amino]phenyl}methyl)-7-(pyrazin-2-yloxy)-2,3-dihydrospiro[1,3-benzoxazine-4,3′-oxetan]-2-one]
5 to 50 | CNS(=O)(=O)Nc1cccc(CN2Cc3ccc(Oc4cccnc4)cc3OC2=O)c1F [Compound 61, 3-{[2-fluoro-3-(methylaminosulfonylamino)phenyl]methyl}-7-(3-pyridyloxy)-3,4-dihydro-2H-1,3-benzoxazin-2-one]
5 to 50 | CNS(=O)(=O)Nc1cccc(CN2C(=O)Oc3cc(Oc4ncco4)c(F)cc3[C@@H]2C)c1F (single isomer, unassigned) [Compound 84, (S)-6-fluoro-3-({2-fluoro-3-(methylsulfamoyl)amino]phenyl}methyl)-4-methyl-7-(1,3-oxazol-2-yloxy)-3,4-dihydro-2H-1,3-benzoxazin-2-one or (R)-6-fluoro-3-({2-fluoro-3-(methylsulfamoyl)amino]phenyl}methyl)-4-methyl-7-(1,3-oxazol-2-yloxy)-3,4-dihydro-2H-1,3-benzoxazin-2-one]
5 to 50 | CNS(=O)(=O)Nc1nccc(CN2C(=O)Oc3cc(Oc4nc(C)co4)ccc3C23CCC3)c1F [Compound 182, 3-{[3-fluoro-2-(methylaminosulfonylamino)-4-pyridyl]methyl}-7-(4-methyl-1,3-oxazol-2-yloxy)-2H,3H-spiro[1,3-benzoxazine-4,1′-cyclobutan]-2-one]
50 to 500 | CNS(=O)(=O)Nc1cccc(CN2C(=O)Oc3cc(Oc4ncco4)cc(F)c3[C@H]2C)c1F (single isomer, unassigned) [Compound 87, (R)-5-fluoro-3-({2-fluoro-3-(methylsulfamoyl)amino]phenyl}methyl)-4-methyl-7-(1,3-oxazol-2-yloxy)-3,4-dihydro-2H-1,3-benzoxazin-2-one or (S)-5-fluoro-3-({2-fluoro-3-(methylsulfamoyl)amino]phenyl}methyl)-4-methyl-7-(1,3-oxazol-2-yloxy)-3,4-dihydro-2H-1,3-benzoxazin-2-one]
5 to 50 | CNS(=O)(=O)Nc1cccc(CN2C(=O)Oc3cc(Oc4ccccn4)ccc3C23COC3)c1F [Compound 50, 3-({2-fluoro-3-[(methylsulfamoyl)amino]phenyl}methyl)-7-(pyridin-2-yloxy)-2,3-dihydrospiro[1,3-benzoxazine-4,3′-oxetan]-2-one]

More lines, now with the values behind:

SMILES | IC50 [nM]
CNS(=O)(=O)Nc1nccc(CN2C(=O)Oc3cc(Oc4ncc(C)o4)ccc3C23CCC3)c1F [Compound 180, 3-{[3-fluoro-2-(methylaminosulfonylamino)-4-pyridyl]methyl}-7-(5-methyl-1,3-oxazol-2-yloxy)-2H,3H-spiro[1,3-benzoxazine-4,1′-cyclobutan]-2-one] | 5 to 50
CNS(=O)(=O)Nc1cccc(CN2C(=O)Oc3cc(Oc4ncco4)cnc3[C@H]2C)c1F (stereo in doubt) [Compound 189, 3-{[2-fluoro-3-(methylaminosulfonylamino)phenyl]methyl}-4-methyl-7-(1,3-oxazol-2-yloxy)-3,4-dihydro-2H-1-oxa-3,5-diazanaphthalen-2-one] | 50 to 500
CNS(=O)(=O)Cc1cccc(CN2C(=O)Oc3cc(OC(=O)N(C)C)ccc3C23COC3)c1F [Compound 47, 3-({2-fluoro-3-[(methylsulfamoyl)methyl]phenyl}methyl)-2-oxo-2,3-dihydrospiro[1,3-benzoxazine-4,3′-oxetan]-7-yl N,N-dimethylcarbamate] | 50 to 500
CNS(=O)(=O)Nc1ccc(F)c(CN2C(=O)Oc3cc(Oc4cccnn4)ccc3C23CCC3)c1F [Compound 197, 3-{[2,6-difluoro-3-(methylaminosulfonylamino)phenyl]methyl}-7-(3-pyridazinyloxy)-2H,3H-spiro[1,3-benzoxazine-4,1′-cyclobutan]-2-one] | 50 to 500

Reference: patent US20260297105A1, “RAF-MEK PROTEIN COMPLEX MODULATORS AND METHODS OF USE THEREOF” (GANDEEVA THERAPEUTICS, INC., priority 2023, published 2026)
